From patent US20160199367A1, “Composition for the prevention or treatment of the symptoms in the stroke comprising the inhibitor of Pin1” (RESEARCH & BUSINESS FOUNDATION SUNGKYUNKWAN UNIVERSITY, priority 2015, published 2016)

Experiments:
SH-SY5Y cells = test: Apoptosis of SH-SY5Y cells under GD or OGD by trypan blue staining; type: cell-based, human; settings: OGD or GD condition for 6 hours or 12 hours, juglone 1.5 μM, PiB 5 μM, DTM 5 μM, FIGS. 5A to 5D
Method: By the method as described in Example 4, SH-SY5Y cells were exposed to OGD or GD conditions to induce apoptosis, and Pin1 inhibitors including juglone were treated to verify a neuroprotective effect.
SH-SY5Y cells were treated with Pin1 inhibitors such as 5-hydroxy-1,4-naphthoquinone (juglone), diethyl-1,3,6,8-tetrahydro-1,3,6,8-tetraoxobenzo phenanthroline-2,7-diacetate (PiB), and dipentamethylene thiuram monosulfide (DTM) at a concentration each of 1.5, 5 or 5 μM, and exposed to a GD or OGD condition for 6 hours or 12 hours to induce apoptosis, and then stained with trypan blue (0.4%) to quantify a degree of apoptosis.

NICD1 protein [1] = test: NICD1 protein expression by western blotting in SH-SY5Y cells; type: cell-based, human; settings: 5 μM, treated in combination after overexpression of Pin1, SH-SY5Y, FIG. 1B
Method: In Examples according to the present invention, a human neuroblastoma cell line, SH-SY5Y, and a mouse embryonic fibroblast cell line, an MEF cell, were used. All of the cells were cultured in DMEM (Sigma) media containing 10% fetal bovine serum (Gibco, Welgene, Hyclone) and 1% penicillin/streptomycin.
(§1) A sample was prepared by isolating a protein from cells, and analyzed by 10% sodium dodecyl sulfate (SDS)-polyacrylamide gel electrophoresis using Tris-glycine running buffer. The gel was removed after the electrophoresis, and a transferring process was performed using a transfer buffer containing 0.025 mol/L Tris base, 0.15 mol/L glycine, and 10% (v/v) methanol at 15 V for 1.5 hours to transfer proteins onto a nitrocellulose membrane along an electrical flow. The protein-binding membrane was immersed in blocking buffer (5% non-fat milk in 20 mM Tris-HCl, pH 7.5, 137 mM NaCl, 0.2% Tween-20), and reacted at room temperature for 1 hour. […]
First, to verify the correlation between the Notch1 signaling activity and Pin1, Pin1 protein was overexpressed with Pin1 cDNA in a human neuroblastoma cell line, SH-SY5Y, and a change in expression of a Notch1 signaling-activation molecule, NICD1 protein, was analyzed by western blotting (WB). […]

NICD1 ubiquitination = NICD1 ubiquitination by co-immunoprecipitation and western blotting in Pin1-overexpressing SH-SY5Y cells; type: cell-based, human; settings: 1.5 μM, Pin1-overexpressing SH-SY5Y treated with MG132, FIG. 3A
Excerpt: MYC-tagged NICD1, HA-tagged ubiquitin (Ub), and Pin1 were expressed in SH-SY5Y cell lines, and treated with MG132 to inhibit a proteolytic activity of a 26S proteasome complex. Afterward, HA and FBW7-specific antibodies were used to analyze a degree of NICD1 ubiquitination by co-immunoprecipitation (IP) and western blotting (WB).

Pin1 protein [2] = test: Pin1 protein expression in primary neuronal cells in ischemic stroke-like environment (immunocytochemistry, western blotting); type: cell-based; settings: OGD or GD condition, FIGS. 4A and 4B
Method: (§8) Primary neuronal cells were cultured in a glucose and serum-free medium in a 5% or 1% oxygen incubator for 9, 12 and 24 hours to create an ischemic stroke-like environment on a cellular level, thereby inducing the neuronal cell death. Afterward, an expression level of the Pin1 protein was analyzed by immunocytochemistry and western blotting.
(§9) In addition, after the neuronal cells were cultured under the OGD condition for 12 hours, the induction of the neuronal cell death was detected by trypan blue (0.4%) staining, which is shown in FIG. 4C.

[3] = tested on: cleaved caspase-3 (CLCas-3) protein; test: Cleaved caspase-3 expression in primary neuronal cells under GD or OGD by western blotting; type: cell-based; settings: GD or OGD condition for 12 hours or 24 hours, FIGS. 4D and 4E
Method: as §1, with “hour. Afterward, the membrane was reacted overnight with primary antibodies, such as Pin1 (R&D, Epitomics), NICD1 (Upstate), MYC (Roche), FBW7 (Bioss), or Actin (Sigma), which specifically bound to each protein whose expression level was to be confirmed, at 4° C. The next day, the membrane was washed with Tris-buffered saline-T (20 mM Tris-HCL, pH 7.5, 137 mM NaCl, 0.2% Tween-20) three times each for 10 minutes.” for “hour.”
(§2) Subsequently, primary neuronal cells were cultured under a GD or OGD condition for 12 hours or 24 hours, and then changes in expressions of caspase-3, which is one of the apoptosis signal proteins, and NICD1 protein were analyzed by western blotting.

NICD1 protein [4] = test: NICD1 expression in primary neuronal cells under GD or OGD by western blotting; type: cell-based; settings: GD or OGD condition, FIGS. 4F and 4G
Method: as §1, with “hour. Afterward, the membrane was reacted overnight with primary antibodies, such as Pin1 (R&D, Epitomics), NICD1 (Upstate), MYC (Roche), FBW7 (Bioss), or Actin (Sigma), which specifically bound to each protein whose expression level was to be confirmed, at 4° C. The next day, the membrane was washed with Tris-buffered saline-T (20 mM Tris-HCL, pH 7.5, 137 mM NaCl, 0.2% Tween-20) three times each for 10 minutes.” for “hour.”
as §2

[5] = tested on: middle cerebral artery occlusion (MCAO) animal model; test: Stroke inhibitory effect in MCAO animal model, administration before MCAO operation; type: in vivo; settings: mouse, 3 mg/kg intraperitoneally twice before MCAO operation, compared to control group
Excerpt: (§3) A mouse was anesthetized and an epidermis around the neck was incised. The left common carotid artery linked to the left hemisphere was ligated with a surgical suture, and then the external carotid artery was incised to insert a filament thereinto. The filament was pushed into the middle cerebral artery through the internal carotid artery to locally clog the middle cerebral artery, thereby interrupting blood supply to construct an ischemic animal model. After cerebral infarction was induced in the animal model for 1 hour, the filament was removed from the blood vessel (artery), and then the blood was supplied again to the blood vessel, followed by suturing.
Ischemic stroke was trigged in the mouse by intraperitoneally administering the juglone (3 mg/kg) twice and conducting an MCAO operation, and then the resultant mouse was compared with a control group mouse to which the juglone was not administered.

NICD1 protein [6] = test: NICD1 expression in left hemisphere of MCAO mouse, administration before MCAO (western blotting); type: in vivo; settings: 3 mg/kg intraperitoneally twice before MCAO, compared to control group, FIGS. 7C and 7D
Method: (§4) A sample was prepared by isolating a protein from cells, and analyzed by 10% sodium dodecyl sulfate (SDS)-polyacrylamide gel electrophoresis using Tris-glycine running buffer. The gel was removed after the electrophoresis, and a transferring process was performed using a transfer buffer containing 0.025 mol/L Tris base, 0.15 mol/L glycine, and 10% (v/v) methanol at 15 V for 1.5 hours to transfer proteins onto a nitrocellulose membrane along an electrical flow. The protein-binding membrane was immersed in blocking buffer (5% non-fat milk in 20 mM Tris-HCl, pH 7.5, 137 mM NaCl, 0.2% Tween-20), and reacted at room temperature for 1 hour. […] The next day, the membrane was washed with Tris-buffered saline-T (20 mM Tris-HCL, pH 7.5, 137 mM NaCl, 0.2% Tween-20) three times each for 10 minutes. In addition, the membrane was reacted with secondary antibodies at room temperature for 1 hour, washed again three times, and then scanned using an Odyssey® Infrared Imaging System (LI-COR Biosciences) or ECL-plus system to analyze the expression level of each protein.
(§5) A mouse was anesthetized and an epidermis around the neck was incised. […]
(§6) In addition, the left hemisphere of the stroke-triggered mouse was analyzed by western blotting to compare the expressions of NICD1, Pin1 and FBW7 proteins.

Pin1 protein [7] = test: Pin1 expression in left hemisphere of MCAO mouse, administration before MCAO (western blotting); type: in vivo; settings: 3 mg/kg intraperitoneally twice before MCAO, compared to control group, FIGS. 7C and 7D
Method: as §4, §5, §6

FBW7 protein [8] = test: FBW7 expression in left hemisphere of MCAO mouse, administration before MCAO (western blotting); type: in vivo; settings: 3 mg/kg intraperitoneally twice before MCAO, compared to control group, FIGS. 7C and 7D
Method: as §4, §5, §6

[9] = tested on: middle cerebral artery occlusion (MCAO) animal model; test: Neuroprotective effect in MCAO animal model, administration after triggering of ischemic stroke; type: in vivo; settings: mouse, 3 mg/kg once by intravenous injection after MCAO operation, compared to control group
Excerpt: as §3
An MCAO operation was conducted on a mouse as described in Example 1-4 to trigger ischemic stroke, and then juglone (3 mg/kg) was administered once to the mouse by intravenous injection. Afterward, the resultant mouse was compared with the control group mouse to which the juglone was not administered.

NICD1 protein [10] = test: NICD1 expression in MCAO mouse brain, administration after stroke (western blotting); type: in vivo; settings: 3 mg/kg once by intravenous injection after MCAO, compared to control group, FIGS. 8C and 8D
Method: as §4
(§7) A mouse was anesthetized and an epidermis around the neck was incised. The left common carotid artery linked to the left hemisphere was ligated with a surgical suture, and then the external carotid artery was incised to insert a filament thereinto. […]

Pin1 protein [11] = test: Pin1 expression in MCAO mouse brain, administration after stroke (western blotting); type: in vivo; settings: 3 mg/kg once by intravenous injection after MCAO, compared to control group, FIGS. 8C and 8D
Method: as §4, §7

FBW7 protein [12] = test: FBW7 expression in MCAO mouse brain, administration after stroke (western blotting); type: in vivo; settings: 3 mg/kg once by intravenous injection after MCAO, compared to control group, FIGS. 8C and 8D
Method: as §4, §7

primary neuronal cells = test: Neuronal cell death under OGD condition by trypan blue staining; settings: OGD condition for 12 hours, FIG. 4C
Method: as §8, §9

CCOC(=O)CN1C(=O)c2ccc3c4c(ccc(c24)C1=O)C(=O)N(CC(=O)OCC)C3=O [PiB, diethyl-1,3,6,8-tetrahydro-1,3,6,8-tetraoxobenzo phenanthroline-2,7-diacetate]
apoptosis (trypan blue) (SH-SY5Y cells): decreased to a greater or less extent

C[C@H](NC(=O)Cc1cc(F)cc(F)c1)C(=O)N[C@H](C(=O)OC(C)(C)C)c1ccccc1 [DAPT, N-[N-(3,5-difluorophenacetyl)-1-alanyl]-S-phenylglycine t-butyl ester]
expression of NICD1 protein (NICD1 protein [1]): increase in NICD1 was not found

O=C1C=CC(=O)c2c(O)cccc21 [juglone, 5-hydroxy-1,4-naphthoquinone]
NICD1 ubiquitination (NICD1 ubiquitination): increased again
Pin1 expression (Pin1 protein [2]): reduced
expression of cleaved caspase-3 (CLCas-3) protein [3]: decreased
expression of NICD1 protein (NICD1 protein [4]): decreased
apoptosis (trypan blue) (SH-SY5Y cells): decreased to a greater or less extent
generation of ischemia ([5]; FIG. 7A): decreased
neurological deficits ([5]; FIG. 7B): decreased
expression of NICD1 protein (NICD1 protein [6]): decreased
expression of Pin1 protein (Pin1 protein [7]): decreased
expression of FBW7 protein (FBW7 protein [8]): increased
generation of ischemia ([9]; FIG. 8A): decreased
neurological deficits ([9]; FIG. 8B): decreased
expression of NICD1 protein (NICD1 protein [10]): decreased
expression of Pin1 protein (Pin1 protein [11]): decreased
expression of FBW7 protein (FBW7 protein [12]): increased
apoptosis (neuronal cell death, trypan blue) (primary neuronal cells): reduced

S=C(SC(=S)N1CCCCC1)N1CCCCC1 [DTM, dipentamethylene thiuram monosulfide]
apoptosis (trypan blue) (SH-SY5Y cells): decreased to a greater or less extent
